pKi: −log10 of the molar value. Numbered stars: 1 amine (or outer) side, 2 acyl side, 3 side chain; on linkers, the order of the positions; unused ones are H or OH. Bridge positions count the residues as written; N and C are the ends. Square brackets hold non-standard residues; d marks the D form. Peptide text beside a SMILES is read from it. ξ: configuration not given here. Trp(5-F) = N[C@@H](Cc1c[nH]c2ccc(F)cc12)C(=O)O; Trp(7-aza) = N[C@@H](Cc1c[nH]c2ncccc12)C(=O)O; NMeW = CN[C@@H](Cc1c[nH]c2ccccc12)C(=O)O; X1 = O=C(CCSCc1cccc(CSCCN[*:1])c1)[*:2]; mXylylene = c1cc(C[*:1])cc(C[*:2])c1; NMeY = CN[C@@H](Cc1ccc(O)cc1)C(=O)O; NMeH = CN[C@@H](Cc1c[nH]cn1)C(=O)O; Tle = CC(C)(C)[C@H](N)C(=O)O; Pip = O=C(O)[C@@H]1CCCCN1; Aze = O=C(O)[C@@H]1CCN1; Nva = CCC[C@H](N)C(=O)O; ξNle = CCCCC(N)C(=O)O; Mpa = O=C(O)CCS; Sar = CNCC(=O)O

In the assay the target is PCSK9/LDLR (Homo sapiens, UniProt Q8NBP7). Briefly: Inhibition of avi-tagged-biotinylated human PCSK9 interaction with His-tagged human LDLR EGFa domain by LANCE Ulight Streptavidin based TR-FRET assay. Format: protein assay. In general terms: Time-resolved FRET reads energy transfer from a long-lived donor to a nearby acceptor.
Chain of PCSK9/LDLR (Q8NBP7 31-152 limits assumed): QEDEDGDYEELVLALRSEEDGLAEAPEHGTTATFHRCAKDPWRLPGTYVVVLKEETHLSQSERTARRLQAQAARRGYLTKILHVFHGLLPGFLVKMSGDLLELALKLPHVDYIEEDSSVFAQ
Chain of PCSK9/LDLR (Q8NBP7 153-692 limits assumed): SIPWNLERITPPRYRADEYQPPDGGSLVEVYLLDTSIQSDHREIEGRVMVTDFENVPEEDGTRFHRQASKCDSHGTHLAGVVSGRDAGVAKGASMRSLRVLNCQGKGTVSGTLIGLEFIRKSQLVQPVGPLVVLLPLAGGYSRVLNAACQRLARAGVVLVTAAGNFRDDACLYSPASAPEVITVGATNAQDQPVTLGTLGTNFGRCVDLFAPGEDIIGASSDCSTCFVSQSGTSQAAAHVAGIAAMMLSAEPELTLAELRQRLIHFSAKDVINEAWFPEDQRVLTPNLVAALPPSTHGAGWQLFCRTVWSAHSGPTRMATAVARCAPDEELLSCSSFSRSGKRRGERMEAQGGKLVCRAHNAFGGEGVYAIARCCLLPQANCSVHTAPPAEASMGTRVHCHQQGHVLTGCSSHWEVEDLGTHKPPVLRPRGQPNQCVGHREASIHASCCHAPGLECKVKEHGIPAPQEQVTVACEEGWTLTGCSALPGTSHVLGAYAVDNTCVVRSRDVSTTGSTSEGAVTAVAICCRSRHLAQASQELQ
Chain of PCSK9/LDLR (P01130 22-860 partner limits assumed): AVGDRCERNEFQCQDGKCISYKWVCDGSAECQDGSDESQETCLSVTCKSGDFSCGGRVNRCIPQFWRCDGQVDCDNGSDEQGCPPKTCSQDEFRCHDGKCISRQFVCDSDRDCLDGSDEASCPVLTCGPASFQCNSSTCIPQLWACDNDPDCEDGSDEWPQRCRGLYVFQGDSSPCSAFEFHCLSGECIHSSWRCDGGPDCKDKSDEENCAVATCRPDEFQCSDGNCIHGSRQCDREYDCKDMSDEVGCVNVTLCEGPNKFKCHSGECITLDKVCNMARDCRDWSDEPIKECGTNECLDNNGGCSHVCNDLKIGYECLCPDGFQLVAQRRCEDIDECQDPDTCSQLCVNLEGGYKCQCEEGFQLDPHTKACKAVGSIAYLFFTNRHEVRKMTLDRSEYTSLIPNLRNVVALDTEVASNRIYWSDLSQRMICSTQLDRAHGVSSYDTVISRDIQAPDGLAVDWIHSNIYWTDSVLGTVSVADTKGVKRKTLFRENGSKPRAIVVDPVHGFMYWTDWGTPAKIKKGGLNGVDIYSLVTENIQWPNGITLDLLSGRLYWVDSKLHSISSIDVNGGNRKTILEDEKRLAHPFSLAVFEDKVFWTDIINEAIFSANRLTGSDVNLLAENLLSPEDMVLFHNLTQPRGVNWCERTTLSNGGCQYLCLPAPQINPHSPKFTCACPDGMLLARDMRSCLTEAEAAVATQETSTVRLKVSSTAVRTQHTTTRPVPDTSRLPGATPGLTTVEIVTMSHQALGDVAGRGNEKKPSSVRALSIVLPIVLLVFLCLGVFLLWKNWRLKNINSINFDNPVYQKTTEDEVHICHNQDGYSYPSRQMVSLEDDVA
On to `NCCCC[C@@H]1NC(=O)CCSCc2cccc(c2)CSC[C@@H](C(N)=O)NC(=O)[C@@H]2CCN2C(=O)[C@H](Cc2ccc(O)cc2)NC(=O)[C@H](Cc2cnc[nH]2)NC(=O)[C@H](CC(=O)O)NC(=O)[C@H](Cc2c[nH]c3ccc(F)cc23)NC(=O)[C@H](Cc2c[nH]c3ccc(F)cc23)NC(=O)CNC1=O` ([Mpa]KG[Trp(5-F)][Trp(5-F)]DHY[Aze]C-NH2; linker 1-10 via mXylylene), for which the pKi – broadly, −log10 of the Ki, conventionally taken in molar units – is 7.17.
In the case of `C[C@@H]1NC(=O)[C@H](Cc2cnc[nH]2)NC(=O)[C@H](CC(=O)O)NC(=O)[C@H](Cc2c[nH]c3ccc(F)cc23)NC(=O)[C@H](Cc2c[nH]c3ccc(F)cc23)NC(=O)CNC(=O)[C@H](CCCCN)NC(=O)CCSCc2cccc(c2)CSC[C@@H](C(N)=O)NC(=O)[C@@H]2CCCN2C1=O` ([Mpa]KG[Trp(5-F)][Trp(5-F)]DHAPC-NH2; linker 1-10 via mXylylene), the pKi was < 4.32.
Regarding `CN1C(=O)[C@H](Cc2c[nH]c3ccc(F)cc23)NC(=O)CNC(=O)[C@H](CCCCN)NC(=O)CCSCc2cccc(c2)CSC[C@@H](C(N)=O)NC(=O)[C@@H]2CCCN2C(=O)[C@H](Cc2ccc(O)cc2)NC(=O)[C@H](Cc2cnc[nH]2)NC(=O)[C@H](CC(=O)O)NC(=O)[C@@H]1Cc1c[nH]c2ccccc12` ([Mpa]KG[Trp(5-F)][NMeW]DHYPC-NH2; linker 1-10 via mXylylene), the pKi was < 4.32.
Regarding `NCCCC[C@@H]1NC(=O)CCSCc2cccc(c2)CSC[C@@H](C(N)=O)NC(=O)[C@@H]2CCCN2C(=O)[C@H](Cc2ccc(O)cc2)NC(=O)[C@@H](Cc2cnc[nH]2)NC(=O)[C@H](CC(=O)O)NC(=O)[C@H](Cc2c[nH]c3ccc(F)cc23)NC(=O)[C@H](Cc2c[nH]c3ccc(F)cc23)NC(=O)CNC1=O`, the pKi was < 4.32.
For `NCCCC[C@@H]1NC(=O)CCSCc2cccc(c2)CSC[C@@H](C(N)=O)NC(=O)[C@@H]2CCCN2C(=O)[C@H](Cc2ccc(O)cc2)NC(=O)[C@H](Cc2cnc[nH]2)NC(=O)[C@H](CC(=O)O)NC(=O)[C@@H](Cc2c[nH]c3ccccc23)NC(=O)[C@H](Cc2c[nH]c3ccc(F)cc23)NC(=O)CNC1=O`, the pKi was < 4.32.
`CC(=O)N[C@H]1CSCc2cccc(c2)CSC[C@@H](C(N)=O)NC(=O)[C@@H]2CCCN2C(=O)[C@H](Cc2ccc(O)cc2)NC(=O)[C@H](Cc2cnc[nH]2)NC(=O)[C@H](CC(=O)O)NC(=O)[C@H](Cc2c[nH]c3ccc(F)cc23)NC(=O)[C@H](Cc2c[nH]c3ccc(F)cc23)NC(=O)CNC(=O)[C@H](CCCCN)NC1=O` (Ac-CKG[Trp(5-F)][Trp(5-F)]DHYPC-NH2; linker 1-10 via mXylylene) had a pKi of 7.33.
`CN1CC(=O)N[C@@H](Cc2c[nH]c3ccc(F)cc23)C(=O)N[C@@H](Cc2c[nH]c3ccc(F)cc23)C(=O)N[C@@H](CC(=O)O)C(=O)N[C@@H](Cc2cnc[nH]2)C(=O)N[C@@H](Cc2ccc(O)cc2)C(=O)N2CCC[C@H]2C(=O)N[C@H](C(N)=O)CSCc2cccc(c2)CSCCC(=O)N[C@@H](CCCCN)C1=O` ([Mpa]K[Sar][Trp(5-F)][Trp(5-F)]DHYPC-NH2; linker 1-10 via mXylylene) gave a pKi of 5.39.
Turning to `CN1CC(=O)N[C@H](C(N)=O)CSCc2cccc(c2)CSCCC(=O)N[C@@H](CCCCN)C(=O)NCC(=O)N[C@@H](Cc2c[nH]c3ccc(F)cc23)C(=O)N[C@@H](Cc2c[nH]c3ccc(F)cc23)C(=O)N[C@@H](CC(=O)O)C(=O)N[C@@H](Cc2cnc[nH]2)C(=O)N[C@@H](Cc2ccc(O)cc2)C1=O` ([Mpa]KG[Trp(5-F)][Trp(5-F)]DHY[Sar]C-NH2; linker 1-10 via mXylylene), the pKi is 4.97.
In the case of `NCCCC[C@@H]1NC(=O)CCSCc2cccc(c2)CSC[C@@H](C(N)=O)NC(=O)[C@@H]2CCCN2C(=O)[C@H](Cc2ccc(O)cc2)NC(=O)[C@H](Cc2cnc[nH]2)NC(=O)[C@@H](CC(=O)O)NC(=O)[C@H](Cc2c[nH]c3ccc(F)cc23)NC(=O)[C@H](Cc2c[nH]c3ccc(F)cc23)NC(=O)CNC1=O`, the pKi was < 4.32.
With `C[C@@H]1NC(=O)[C@H](Cc2ccc(O)cc2)NC(=O)[C@H](Cc2cnc[nH]2)NC(=O)[C@H](CC(=O)O)NC(=O)[C@H](Cc2c[nH]c3ccc(F)cc23)NC(=O)[C@H](Cc2c[nH]c3ccc(F)cc23)NC(=O)CNC(=O)[C@H](CCCCN)NC(=O)CCSCc2cccc(c2)CSC[C@@H](C(N)=O)NC1=O` ([Mpa]KG[Trp(5-F)][Trp(5-F)]DHYAC-NH2; linker 1-10 via mXylylene), the negative-log Ki (pKi) was < 4.32.
Next, `CN1C(=O)[C@H](Cc2cnc[nH]2)NC(=O)[C@H](CC(=O)O)NC(=O)[C@H](Cc2c[nH]c3ccc(F)cc23)NC(=O)[C@H](Cc2c[nH]c3ccc(F)cc23)NC(=O)CNC(=O)[C@H](CCCCN)NC(=O)CCSCc2cccc(c2)CSC[C@@H](C(N)=O)NC(=O)[C@@H]2CCCN2C(=O)[C@@H]1Cc1ccc(O)cc1` ([Mpa]KG[Trp(5-F)][Trp(5-F)]DH[NMeY]PC-NH2; linker 1-10 via mXylylene): 6.95; `NCCCC[C@@H]1NC(=O)CCSCc2cccc(c2)CSC[C@@H](C(N)=O)NC(=O)[C@H]2CCCN2C(=O)[C@H](Cc2ccc(O)cc2)NC(=O)[C@H](Cc2cnc[nH]2)NC(=O)[C@H](CC(=O)O)NC(=O)[C@H](Cc2c[nH]c3ccc(F)cc23)NC(=O)[C@H](Cc2c[nH]c3ccc(F)cc23)NC(=O)CNC1=O`: < 4.30.
In turn, `C[C@@H]1NC(=O)[C@H](Cc2c[nH]c3ccc(F)cc23)NC(=O)[C@H](Cc2c[nH]c3ccc(F)cc23)NC(=O)CNC(=O)[C@H](CCCCN)NC(=O)CCSCc2cccc(c2)CSC[C@@H](C(N)=O)NC(=O)[C@@H]2CCCN2C(=O)[C@H](Cc2ccc(O)cc2)NC(=O)[C@H](Cc2cnc[nH]2)NC1=O` ([Mpa]KG[Trp(5-F)][Trp(5-F)]AHYPC-NH2; linker 1-10 via mXylylene) had a pKi of 6.37.
For `NCCCC[C@@H]1NC(=O)CCSCc2cccc(c2)CSC[C@@H](C(N)=O)NC(=O)[C@@H]2CCCCN2C(=O)[C@H](Cc2ccc(O)cc2)NC(=O)[C@H](Cc2cnc[nH]2)NC(=O)[C@H](CC(=O)O)NC(=O)[C@H](Cc2c[nH]c3ccc(F)cc23)NC(=O)[C@H](Cc2c[nH]c3ccc(F)cc23)NC(=O)CNC1=O` ([Mpa]KG[Trp(5-F)][Trp(5-F)]DHY[Pip]C-NH2; linker 1-10 via mXylylene), the pKi was 6.01.
With `CC(=O)N[C@H]1CSCc2cccc(c2)CSC[C@@H](C(N)=O)NC(=O)[C@@H]2CCCN2C(=O)[C@H](Cc2ccc(O)cc2)NC(=O)[C@H](Cc2c[nH]cn2)NC(=O)[C@H](CC(=O)O)NC(=O)[C@H](Cc2c[nH]c3ccc(F)cc23)NC(=O)[C@H](Cc2c[nH]c3ccccc23)NC(=O)CNC(=O)[C@H](CCCCN)NC1=O` (Ac-CKGW[Trp(5-F)]DHYPC-NH2; linker 1-10 via mXylylene), the pKi was 6.99.
The figure for `CN1C(=O)[C@H](CC(=O)O)NC(=O)[C@H](Cc2c[nH]c3ccc(F)cc23)NC(=O)[C@H](Cc2c[nH]c3ccc(F)cc23)NC(=O)CNC(=O)[C@H](CCCCN)NC(=O)CCSCc2cccc(c2)CSC[C@@H](C(N)=O)NC(=O)[C@@H]2CCCN2C(=O)[C@H](Cc2ccc(O)cc2)NC(=O)[C@@H]1Cc1cnc[nH]1` ([Mpa]KG[Trp(5-F)][Trp(5-F)]D[NMeH]YPC-NH2; linker 1-10 via mXylylene) is < 4.32; for `CN1C(=O)CNC(=O)[C@H](CCCCN)NC(=O)CCSCc2cccc(c2)CSC[C@@H](C(N)=O)NC(=O)[C@@H]2CCCN2C(=O)[C@H](Cc2ccc(O)cc2)NC(=O)[C@H](Cc2cnc[nH]2)NC(=O)[C@H](CC(=O)O)NC(=O)[C@H](Cc2c[nH]c3ccc(F)cc23)NC(=O)[C@@H]1Cc1c[nH]c2ccccc12` ([Mpa]KG[NMeW][Trp(5-F)]DHYPC-NH2; linker 1-10 via mXylylene) it is < 4.32.
In turn, `NCCCC[C@H]1NC(=O)CCSCc2cccc(c2)CSC[C@@H](C(N)=O)NC(=O)[C@@H]2CCCN2C(=O)[C@H](Cc2ccc(O)cc2)NC(=O)[C@H](Cc2cnc[nH]2)NC(=O)[C@H](CC(=O)O)NC(=O)[C@H](Cc2c[nH]c3ccc(F)cc23)NC(=O)[C@H](Cc2c[nH]c3ccc(F)cc23)NC(=O)CNC1=O` showed a pKi of 4.79.
Next, `NCCCC[C@@H]1NC(=O)CCSCc2cccc(c2)CSCCNC(=O)[C@@H]2CCCN2C(=O)[C@H](Cc2ccc(O)cc2)NC(=O)[C@H](Cc2c[nH]cn2)NC(=O)[C@H](CC(=O)O)NC(=O)[C@H](Cc2c[nH]c3ccc(F)cc23)NC(=O)[C@H](Cc2c[nH]c3ccc(F)cc23)NC(=O)CNC1=O` (cyclo(DHYP[X1]KG[Trp(5-F)][Trp(5-F)])): 6.60; `CCCCC(NC(C)=O)C(=O)N[C@H]1CSCc2cccc(c2)CSC[C@@H](C(N)=O)NC(=O)[C@H]([C@@H](C)O)NC(=O)[C@H](CCC)NC(=O)[C@H](Cc2ccc(O)cc2)NC(=O)[C@H](CCC(=O)O)NC(=O)[C@H](CCC)NC(=O)[C@H](Cc2c[nH]c3ncccc23)NC(=O)[C@H]([C@@H](C)O)NC(=O)[C@H](Cc2cnc[nH]2)NC(=O)[C@H](Cc2ccc(O)cc2)NC(=O)[C@H](C(C)(C)C)NC1=O` (stereo partly drawn) (Ac-[ξNle]C[Tle]YHT[Trp(7-aza)][Nva]EY[Nva]TC-NH2; linker 2-13 via mXylylene): 6.87; `NCCCC[C@@H]1NC(=O)CCSCc2cccc(c2)CSC[C@@H](C(N)=O)NC(=O)[C@@H]2CCCN2C(=O)[C@H](Cc2ccc(O)cc2)NC(=O)[C@H](Cc2cnc[nH]2)NC(=O)[C@H](CC(=O)O)NC(=O)[C@H](Cc2c[nH]c3ccc(F)cc23)NC(=O)[C@@H](Cc2c[nH]c3ccccc23)NC(=O)CNC1=O`: < 4.32.
As for `C[C@@H]1NC(=O)CCSCc2cccc(c2)CSCCNC(=O)[C@]2(C)CCCN2C(=O)[C@H](Cc2ccc(O)cc2)NC(=O)[C@H](Cc2cnc[nH]2)NC(=O)[C@H](CC(=O)O)NC(=O)[C@H](Cc2c[nH]c3ccc(F)cc23)NC(=O)[C@H](Cc2c[nH]c3ccc(F)cc23)NC(=O)[C@@H](CCCCN)NC1=O`, the pKi was 7.32.
On to `C[C@@H]1NC(=O)[C@H](CCCCN)NC(=O)CCSCc2cccc(c2)CSC[C@@H](C(N)=O)NC(=O)[C@@H]2CCCN2C(=O)[C@H](Cc2ccc(O)cc2)NC(=O)[C@H](Cc2cnc[nH]2)NC(=O)[C@H](CC(=O)O)NC(=O)[C@H](Cc2c[nH]c3ccc(F)cc23)NC(=O)[C@H](Cc2c[nH]c3ccc(F)cc23)NC1=O` ([Mpa]KA[Trp(5-F)][Trp(5-F)]DHYPC-NH2; linker 1-10 via mXylylene), for which the pKi is < 4.32.

Values taken from ChEMBL document CHEMBL4699634, “Series of Novel and Highly Potent Cyclic Peptide PCSK9 Inhibitors Derived from an mRNA Display Screen and Optimized via Structure-Based Design” (J Med Chem, 2020).
